Test results reported in BindingDB's records for doi:10.1038/nchembio.168 (University of New Mexico Health Sciences Center, 2009).

Biological target: Estrogen receptor beta (Mus musculus, UniProt O08537)
Test: Binding affinity to ERbeta receptor in mouse COS7 cells by competitive binding assay

Chain of Estrogen receptor beta (O08537 whole entry): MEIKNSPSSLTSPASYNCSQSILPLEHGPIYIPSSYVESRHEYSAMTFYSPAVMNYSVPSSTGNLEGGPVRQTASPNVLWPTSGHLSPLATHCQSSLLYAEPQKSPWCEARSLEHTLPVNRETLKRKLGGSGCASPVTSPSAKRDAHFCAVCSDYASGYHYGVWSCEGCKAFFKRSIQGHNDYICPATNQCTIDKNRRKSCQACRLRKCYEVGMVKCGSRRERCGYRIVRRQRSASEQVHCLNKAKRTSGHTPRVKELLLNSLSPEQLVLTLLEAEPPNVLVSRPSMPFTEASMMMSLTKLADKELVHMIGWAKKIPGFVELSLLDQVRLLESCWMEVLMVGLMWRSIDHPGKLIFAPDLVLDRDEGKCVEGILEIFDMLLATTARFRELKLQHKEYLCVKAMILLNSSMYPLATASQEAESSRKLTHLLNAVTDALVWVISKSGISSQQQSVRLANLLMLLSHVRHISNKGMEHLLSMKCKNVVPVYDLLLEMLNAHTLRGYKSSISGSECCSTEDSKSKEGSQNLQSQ

Ki: > 10 µM
SMILES: Brc1cc2c(cc1[C@@H]1Nc3ccccc3[C@@H]3C=CC[C@@H]31)OCO2
